This note sets out measurements from PMC11346428, “Biophysical and structural analyses of the interaction between the SHANK1 PDZ domain and an internal SLiM” (Biochemical Journal, 2024).

Residues, ends and D or L forms follow the SMILES beside them. *: point of attachment. 5FAM = O=C1OC2(c3ccc(O)cc3Oc3cc(O)ccc32)c2ccc(C(=O)*)cc21; Ahx = NCCCCCC(=O)O

The target in experiment [1] is T1, SHANK1 PDZ domain (656–762) (Homo sapiens, UniProt Q9Y566).
T1 construct: Human SHANK1 PDZ domain (656–762) was prepared as described previously; GST (N, cleaved yes); made in house; host or cells: E. coli BL21 Gold (pGEX-6P-2)
T1 sequence (Q9Y566 656-762): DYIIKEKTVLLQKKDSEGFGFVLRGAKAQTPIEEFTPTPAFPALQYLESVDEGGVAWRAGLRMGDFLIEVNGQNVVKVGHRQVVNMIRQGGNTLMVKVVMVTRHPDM
Description: Fluorescence anisotropy direct titration. In kind it is binding. To be noted: 50 mM NH4OAc, pH 6.5. As for the experimental part:
Direct titration assays were performed in 384-well plates (Greiner Bio-one). Two hundred micromolars of SHANK1 protein was dialyzed into the assay buffer before use. Twenty microlitres of the assay buffer (50 mM ammonium-acetate, pH 6.5) was first added to each well. Twenty microlitres of the target protein sample was then added to the first column, followed by a two-fold serial dilution over 24 points. Twenty microlitres of 50 nM tracer peptide or 20 µl of the assay buffer was added to the corresponding row wells. The titration was performed in triplicate. […] The P (perpendicular intensity) and S (parallel intensity) channels raw data were obtained. The data processing and formulae are shown in the Supporting Information 2.6.
(§1) . Reversed Phase C18 column, mobile phase A (0.1% TFA in water), mobile phase B
2.6 Equations for data calculation in fluorescent anisotropy direct titration The intensity and anisotropy were calculated by using Equations 1 and 2. The data was fitted to a sigmoidal logistic model to obtain r min and rmax, and the L b was further calculated (Equation 3). Finally, the data was fitted to a nonlinear curve model (Equation 4), to obtain the value of KD.
I = total intensity, r = anisotropy, P = perpendicular intensity, S = parallel intensity, G is an instrument gain factor, L b = fraction ligand bound, λ = Ibound/Iunbound = 1, [FL] = concentration of fluorescent ligand, k = K D and x = [added titrant].
2.7 Equations for data calculation in fluorescent anisotropy competition assays The calculated average anisotropy values and their standard deviation were fitted using a sigmoidal logistic model (Equation 5). y = r = anisotropy, xo = mid-point of the curve between the r max and rmin plateau. […]
(In fluorescence polarisation assays a small probe gives low polarisation when free and higher when bound to something large.)

The target in experiment [2] is T1, SHANK1 PDZ domain (656–762). Description: Fluorescence anisotropy competition assay. In kind it is binding. To be noted: 50 nM tracer, 1 μM SHANK1, 50 mM NH4OAc, pH 6.5, triplicate. As for the experimental part: FA competition assays were also performed in 50 mM NH4OAc, pH 6.5 buffer in 384-well plates. Twenty microlitres of the assay buffer was first added to wells. Twenty microlitres of 5000 µM competitor peptides was added to the first columns, followed by a twofold serial dilution over 16 points. Three micromolars of SHANK1 protein was dialyzed into the assay buffer before use. Twenty microlitres of the SHANK1 protein was added to each well to give a final protein concentration of 1 μM. Twenty microlitres of 50 nM tracer peptides or 20 µl of the assay buffer was added to corresponding row wells. The titration was performed in triplicate. Plates were read immediately with an excitation and emission wavelength of 480 and 535 nm respectively (dichroic mirror 505 nm), and after an hour or after 24 h on the plate reader with the same parameters as described above. The data processing and formulae are shown in the Supporting Information 2.7.
Time (min) Mobile phase A (%) Mobile phase B (%) Flow (mL/min) […]
as §1
2.6 Equations for data calculation in fluorescent anisotropy direct titration The intensity and anisotropy were calculated by using Equations 1 and 2. The data was fitted to a sigmoidal logistic model to obtain r min and rmax, and the L b was further calculated (Equation 3). […]

Experiment [3] shares this target. Briefly: Isothermal titration calorimetry (ITC). To be noted: 25 mM Tris, pH 7.5, 150 mM NaCl, 25°C; 500 μM peptide injected into 50 μM protein; one-binding site model. On the technique in general: Isothermal titration calorimetry measures the heat released or taken up as one component is titrated into another.
Description: A Microcal ITC200i instrument (Malvern) was employed to carry out the ITC experiments. Prior to use, SHANK1 protein was dialyzed against 20 mM Tris, 150 mM NaCl, pH 7.5 buffer. […] Sixty microlitres of every test peptide was placed in the syringe to titrate against 350 µl of 50 µM Shank1 protein in the cell. The injection volumes were 2 µl each, injection time 6 s, and a 120 s delay between each injection for 20 injections in total. The titration for peptide into buffer was subtracted from the titration for peptide into protein to account for the heat of peptide dilution. Raw data was processed in the software Microcal Origin 8 and fit to a one-binding site model.
The next experiment addresses T2, FAM-Ahx-EESTSFQGP-CONH2.
T2 chain: {FAM-Ahx}-EESTSFQGP-NH2
Briefly: fluorescence anisotropy direct titration.

The next experiment addresses T3, Ac-EESTSFQGP-CONH2.
T3 chain: Ac-EESTSFQGP-NH2
Briefly: fluorescence anisotropy competition (tracer FAM-Ahx-EESTSFQGP-CONH2).

Setting [4] is: 50 nM labelled peptide as tracer, plates read after 24 hr incubation at room temperature, read-out: KD (FA direct titration, Figure S1).

`C[C@@H](O)[C@H](NC(=O)[C@H](CO)NC(=O)[C@H](CCC(=O)O)NC(=O)[C@H](CCC(=O)O)NC(=O)CCCCCNC(=O)c1ccc2c(c1)C(=O)OC21c2ccc(O)cc2Oc2cc(O)ccc21)C(=O)N[C@@H](CO)C(=O)N[C@@H](Cc1ccccc1)C(=O)N[C@@H](CCC(N)=O)C(=O)NCC(=O)N1CCC[C@H]1C(N)=O` ({5FAM-Ahx}-EESTSFQGP-NH2): in experiment [1] (FA direct titration of SHANK1 into 50 nM tracer peptide, 25°C, triplicate, read-out: KD), the Kd turned out to be 0.81 ± 0.08 µM.
`CC[C@H](C)[C@H](NC(=O)[C@H](CC(C)C)NC(=O)[C@H](CCC(=O)O)NC(=O)[C@@H]1CCCN1C(=O)[C@H](Cc1ccccc1)NC(=O)CCCCCNC(=O)c1ccc2c(c1)C(=O)OC21c2ccc(O)cc2Oc2cc(O)ccc21)C(=O)N[C@@H](CCC(N)=O)C(=O)N[C@@H](CC(=O)O)C(=O)N[C@H](C(=O)N[C@@H](CO)C(=O)N[C@H](C(=O)N[C@@H](CO)C(=O)N[C@@H](Cc1ccccc1)C(=O)N[C@@H](CO)C(=O)N[C@H](C(=O)N[C@H](C(=O)N[C@@H](CCCNC(=N)N)C(N)=O)[C@@H](C)O)[C@@H](C)O)[C@@H](C)O)[C@@H](C)O` [FAM-Ahx-ARAP31414-1429-CONH2] ({5FAM-Ahx}-FPELIQDTSTSFSTTR-NH2): the Kd in experiment [1] (setting [4]) was 12.2 ± 8.3 µM.
For the molecule `CC(C)[C@H](NC(=O)CNC(=O)[C@H](CCC(N)=O)NC(=O)[C@H](Cc1ccccc1)NC(=O)[C@H](CO)NC(=O)[C@@H](NC(=O)[C@H](CO)NC(=O)[C@H](CCC(=O)O)NC(=O)CCCCCNC(=O)c1ccc2c(c1)C(=O)OC21c2ccc(O)cc2Oc2cc(O)ccc21)[C@@H](C)O)C(=O)N[C@@H](CCCCN)C(=O)N[C@@H](CO)C(=O)NCC(=O)N1CCC[C@H]1C(=O)N[C@H](C(=O)N[C@@H](CO)C(=O)N[C@H](C(=O)N[C@@H](C)C(N)=O)C(C)C)C(C)C` [FAM-Ahx-ELFN1579-594-CONH2] ({5FAM-Ahx}-ESTSFQGVKSGPVSVA-NH2), the Kd in experiment [1] (setting [4]) was determined as 3.6 ± 0.7 µM.
As to Ac-EESTSFQGP-NH2, the half-inhibitory concentration (IC50) – broadly, the concentration needed to halve the response being measured – turned out to be 3.9 ± 0.1 µM in experiment [2] (competition against SHANK1/FAM-Ahx-EESTSFQGP-CONH2 interaction) and 3.3 ± 0.2 µM in experiment [2] (competition against SHANK1/FITC-Ahx-EAQTRL-COOH interaction). The molecule further showed a Kd in experiment [3] of 0.96 µM.

B1: SHANK1 PDZ domain 656-762 (protein)
chain: DYIIKEKTVLLQKKDSEGFGFVLRGAKAQTPIEEFTPTPAFPALQYLESVDEGGVAWRAGLRMGDFLIEVNGQNVVKVGHRQVVNMIRQGGNTLMVKVVMVTRHPDM
For B1, the Kd with FAM-Ahx-EESTSFQGP-CONH2 was 0.81 µM. Also, in the experiment with Ac-EESTSFQGP-CONH2, the IC50 was 3.9 µM.
